Values quoted from earlier work, collected in patent US20260201030A1, “ANTIBODY, ANTIBODY-DRUG CONJUGATE THEREOF AND USE THEREOF” (EVOPOINT BIOSCIENCES CO., LTD., priority 2021, published 2026).

Settings: FL118 alone; cited from earlier work

## CC[C@@]1(O)C(=O)OCc2c1cc1n(c2=O)Cc2cc3cc4c(cc3nc2-1)OCO4 [FL118, (20S)-10,11-methylenedioxy camptothecin]
  water solubility: extremely poor water solubility
